Values quoted from earlier work in patent publication US9315472B2, “1,3,5-triazinane-2,4,6-trione derivatives and uses thereof” (Massachusetts Institute of Technology, priority 2013, dated 2016).
Like-named read-outs stand apart in the source and are kept apart here.

Key:
[1] = mouse, in vivo, po
[2] = rat, in vivo, po

O=c1n(CC2CO2)c(=O)n(CC2CO2)c(=O)n1CC1CO1 (centres unmarked) [Compound 1]
tolerability [1]: tolerated
tolerability [2]: tolerated
